Tests used:
[1] = biological target: human Y4/PP1 receptor (Homo sapiens, UniProt P50391); test: Human Y4/PP1 receptor binding assay ([125I]human PP, membrane protein); conditions: [125I]human PP, membrane protein; read-out: hNPY4 IC50
Outline: (§1)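 Filtration binding with membrane protein and drug dilution, 2 h at room temperature with mixing, radioactivity counted by gamma or scintillation. Y2: 25 pM [125I]PYY in Krebs-Ringer bicarbonate pH 7.4 with 0.01% BSA, nonspecific by 1 μM NPY. Y4/PP1: 50 pM [125I]hPP in HEPES-buffered saline pH 7.4 with protease inhibitors and 0.3% BSA, nonspecific by 1 μM hPP.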

[2] = biological target: T1, Rat NPY5 receptor (Rattus norvegicus, UniProt Q63634); test: Rat NPY5 cyclase assay (in vitro functional assay, forskolin-stimulated adenylate cyclase, cAMP); assay type: cell-based; conditions: 10 μM, percentage of forskolin-stimulated adenylate cyclase; for activity at 10 µM: 20 min, read-out: rNPY5 % FSAC (10 μM)
T1 sequence (Q63634 1-445): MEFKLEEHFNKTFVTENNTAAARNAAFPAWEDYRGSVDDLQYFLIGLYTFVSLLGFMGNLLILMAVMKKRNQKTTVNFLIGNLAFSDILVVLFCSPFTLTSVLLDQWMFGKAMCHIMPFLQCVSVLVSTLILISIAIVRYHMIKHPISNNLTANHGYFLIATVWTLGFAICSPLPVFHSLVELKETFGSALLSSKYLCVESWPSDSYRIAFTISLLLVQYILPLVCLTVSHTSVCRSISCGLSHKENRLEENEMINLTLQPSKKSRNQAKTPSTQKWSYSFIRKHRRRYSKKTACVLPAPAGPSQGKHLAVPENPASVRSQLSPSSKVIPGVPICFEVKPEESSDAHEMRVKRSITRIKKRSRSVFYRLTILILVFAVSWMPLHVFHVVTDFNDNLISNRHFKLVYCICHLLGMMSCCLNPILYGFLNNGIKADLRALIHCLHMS
Description: D. Rat NYP5 Cyclase Assay (In Vitro Functional Assay)
Cells stably expressing the rat NPY5 receptor are resuspended in serum-free DMEM containing 10 mM HEPES (pH 7.4) and 1 mM isobutylmethylxanthine (IBMX). […] forskolin and drug dilution are then added to the cells. After a 20 minute incubation of the samples at 37° C, the assay is stopped by placing the samples in boiling water for 3 minutes. The cAMP produced in each sample is quantitated with a radioimmunoassay kit (NEN DuPont). Data are expressed as a percentage of forskolin-stimulated adenylate cyclase.

[3] = biological target: T1, Rat NPY5 receptor; test: Rat NPY5 receptor binding assay ([125I]PYY, membrane protein); conditions: [125I]PYY, read-out: rNPY5 IC50
Outline: (§2)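 Membrane protein incubated 2 h at room temperature with 75-100 pM porcine [125I]PYY and compound in pH 7.4 Tris buffer with salts, 0.1% BSA and bacitracin. Nonspecific binding with 1 μM PYY. Filtration, then gamma or scintillation counting.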

[4] = biological target: T2, Human NPY5 receptor (Homo sapiens, UniProt Q15761); test: Human NPY5 receptor binding assay ([125I]PYY, membrane protein); conditions: [125I]PYY, read-out: hNPY5 IC50
T2 sequence (Q15761 1-445): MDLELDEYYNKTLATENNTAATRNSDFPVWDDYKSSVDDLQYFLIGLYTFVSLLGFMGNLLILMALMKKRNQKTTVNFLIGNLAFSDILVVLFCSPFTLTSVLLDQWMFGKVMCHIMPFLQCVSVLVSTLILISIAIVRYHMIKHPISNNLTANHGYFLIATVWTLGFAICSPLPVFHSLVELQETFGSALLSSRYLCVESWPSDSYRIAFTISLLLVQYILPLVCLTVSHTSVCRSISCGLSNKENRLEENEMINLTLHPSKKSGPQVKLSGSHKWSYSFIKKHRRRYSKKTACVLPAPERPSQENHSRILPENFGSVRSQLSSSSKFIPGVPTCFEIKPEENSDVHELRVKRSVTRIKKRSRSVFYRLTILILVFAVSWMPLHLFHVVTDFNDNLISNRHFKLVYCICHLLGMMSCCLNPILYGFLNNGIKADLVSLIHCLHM
Outline: as §2

[5] = biological target: T3, Y2 receptor (Homo sapiens, UniProt P49146); test: Y2 receptor binding assay ([125I]PYY, membrane protein); conditions: [125I]PYY, membrane protein; read-out: hNPY2 IC50
T3 sequence (P49146 1-381): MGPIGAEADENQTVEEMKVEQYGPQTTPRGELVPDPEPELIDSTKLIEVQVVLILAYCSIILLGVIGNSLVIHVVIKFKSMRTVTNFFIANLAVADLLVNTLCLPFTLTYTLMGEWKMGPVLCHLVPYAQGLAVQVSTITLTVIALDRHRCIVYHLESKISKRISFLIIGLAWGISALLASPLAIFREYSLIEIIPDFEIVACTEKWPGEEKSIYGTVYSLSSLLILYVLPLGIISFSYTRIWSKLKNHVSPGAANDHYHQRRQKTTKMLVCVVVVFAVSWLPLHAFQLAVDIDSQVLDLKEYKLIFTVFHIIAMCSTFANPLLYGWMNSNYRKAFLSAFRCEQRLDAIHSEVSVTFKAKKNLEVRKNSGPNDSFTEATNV
Outline: as §1

[6] = biological target: T4, Human NPY1 receptor (Homo sapiens, UniProt P25929); test: Human NPY1 receptor binding assay ([125I]PYY, SK-N-MC cells); conditions: [125I]PYY, SK-N-MC cells; read-out: hNPYI IC50
T4 construct: host or cells: SK-N-MC cells
T4 sequence (P25929 1-384): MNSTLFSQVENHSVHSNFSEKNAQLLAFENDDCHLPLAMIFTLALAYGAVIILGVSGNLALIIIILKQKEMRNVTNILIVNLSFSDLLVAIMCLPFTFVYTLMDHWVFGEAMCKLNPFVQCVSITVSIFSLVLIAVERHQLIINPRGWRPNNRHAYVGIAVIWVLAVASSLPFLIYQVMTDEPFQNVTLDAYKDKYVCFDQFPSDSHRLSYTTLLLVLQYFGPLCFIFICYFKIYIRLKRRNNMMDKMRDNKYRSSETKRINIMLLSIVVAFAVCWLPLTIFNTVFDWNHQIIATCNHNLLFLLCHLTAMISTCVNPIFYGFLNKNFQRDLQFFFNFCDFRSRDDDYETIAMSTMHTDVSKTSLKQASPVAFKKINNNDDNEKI
Outline: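 Confluent SK-N-MC cells preincubated 30 min at room temperature in serum-free DMEM/25 mM HEPES pH 7.3 with BSA, bacitracin and PMSF, then incubated 3 h at room temperature with compound and ~50 pM [125I]PYY. Nonspecific binding defined with 1 μM NPY; bound radioactivity counted after Triton X-100 lysis.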

Sequence of human Y4/PP1 receptor (P50391 whole entry): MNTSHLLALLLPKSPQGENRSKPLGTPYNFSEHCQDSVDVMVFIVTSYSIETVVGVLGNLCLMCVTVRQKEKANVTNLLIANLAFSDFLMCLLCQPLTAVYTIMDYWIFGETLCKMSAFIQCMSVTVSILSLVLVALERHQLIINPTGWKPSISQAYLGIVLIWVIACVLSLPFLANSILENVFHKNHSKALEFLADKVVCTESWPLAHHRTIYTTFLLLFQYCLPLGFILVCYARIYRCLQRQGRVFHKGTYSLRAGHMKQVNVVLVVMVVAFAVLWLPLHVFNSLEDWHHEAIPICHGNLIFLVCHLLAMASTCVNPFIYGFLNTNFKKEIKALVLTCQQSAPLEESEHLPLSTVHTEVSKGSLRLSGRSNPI

| IC50 [1] [nM] | activity at 10 µM [2] [%] | IC50 [3] [nM] | IC50 [4] [nM] | IC50 [5] [nM] | melting point [°C] | IC50 [6] [nM] | rNPY5 % FSAC (10 μM) [2] [%] | SMILES |
| --- | --- | --- | --- | --- | --- | --- | --- | --- |
| > 5000 | 97 | 3 | 4 | > 5000 | 215 to 216 | – | – | Cl.O=C(CN1CCC(n2c(=O)[nH]c3ccccc32)CC1)Nc1ccc(C(=O)c2ccccc2)cc1 [Compound 263, N-(4-Benzoyl-phenyl)-2-[4-(2-oxo-2,3-dihydro-benzoimidazol-1-yl)-piperidin-1-yl]-acetamide; hydrochloride] |
| > 5000 | 90 | – | – | > 5000 | 181 to 182 | > 5000 | – | Cl.O=C(CN1CCC(n2c(=O)[nH]c3ccccc32)CC1)NCCc1ccccc1 [Compound 280, 2-[4-(2-Oxo-2,3-dihydro-benzoimidazol-1-yl)-piperidin-1-yl]-N-phenethyl-acetamide; hydrochloride] |
| – | 95 | 0.34 | 0.47 | – | 258 | – | – | Cl.O=C(CN1CCC(n2c(=O)[nH]c3ccccc32)CC1)Nc1ccc2c(c1)-c1ccccc1C2=O [Compound 311, 2-[4-(2-Oxo-2,3-dihydro-benzoimidazol-1-yl)-piperidin-1-yl]-N-(9-oxo-9H-fluoren-3-yl)-acetamide; hydrochloride] |
| – | – | 60 | 110 | – | 289 | – | 101 | Cl.O=C(CN1CCC(n2c(=O)[nH]c3ccccc32)CC1)Nc1ccc(-c2ccc(F)cc2)cc1 [Compound 327, N-(4′-Fluoro-biphenyl-4-yl)-2-[4-(2-oxo-2,3-dihydro-benzoimidazol-1-yl)-piperidin-1-yl]-acetamide; hydrochloride] |
| > 5000 | 90 | 62.8 | 53 | > 5000 | – | > 5000 | – | O=C(CN1CCC(n2c(=O)[nH]c3ccccc32)CC1)Nc1ccc(Oc2ccccc2)cc1 [Compound 352, 2-[4-(2-Oxo-2,3-dihydro-benzoimidazol-1-yl)-piperidin-1-yl]-N-(4-phenoxy-phenyl)-acetamide, reference compound] |
| > 5000 | 98 | 136 | 143 | > 5000 | – | > 5000 | – | CC(=O)c1ccc(NC(=O)CN2CCC(n3c(=O)[nH]c4ccccc43)CC2)cc1 [Compound 354, N-(4-Acetyl-phenyl)-2-[4-(2-oxo-2,3-dihydro-benzoimidazol-1-yl)-piperidin-1-yl]-acetamide, reference compound] |
| > 5000 | 105 | 271 | 259 | > 5000 | – | > 5000 | – | O=C(CN1CCC(n2c(=O)[nH]c3ccccc32)CC1)Nc1ccc(C(F)(F)F)cc1 [Compound 356, 2-[4-(2-Oxo-2,3-dihydro-benzoimidazol-1-yl)-piperidin-1-yl]-N-(4-trifluoromethyl-phenyl)-acetamide, reference compound] |
| > 5000 | 104 | 1200 | 1300 | > 5000 | – | > 5000 | – | Cc1ccc(NC(=O)CN2CCC(n3c(=O)[nH]c4ccccc43)CC2)cc1 [Compound 359, 2-[4-(2-Oxo-2,3-dihydro-benzoimidazol-1-yl)-piperidin-1-yl]-N-p-tolyl-acetamide, reference compound] |

| SMILES | IC50 [1] [nM] | activity at 10 µM [2] [%] | IC50 [3] [nM] | IC50 [4] [nM] | IC50 [5] [nM] | melting point [°C] | IC50 [6] [nM] | rNPY5 % FSAC (10 μM) [2] [%] |
| --- | --- | --- | --- | --- | --- | --- | --- | --- |
| O=C(CN1CCC(n2c(=O)[nH]c3ccccc32)CC1)Nc1ccc([N+](=O)[O-])c(Cl)c1 [Compound 357, N-(3-Chloro-4-nitro-phenyl)-2-[4-(2-oxo-2,3-dihydro-benzoimidazol-1-yl)-piperidin-1-yl]-acetamide, reference compound] | > 5000 | 112 | 229 | 239 | > 5000 | – | > 5000 | – |
